Reference: US6689753B1, “β sheet breaker peptide analogs that inhibit β pleated sheet formation in amyloid β-peptide” (Axonyx, Inc., priority 1999, dated 2004)
Non-standard residues stand in square brackets, D forms with d. Residues, ends and D or L forms follow the SMILES beside them.

Key:
[1] = Peptide stability in rat plasma after i.v. bolus injection (radio-iodinated peptide, TCA precipitation, paper chromatography); assay type: in vivo; conditions: 15 minutes after i.v. injection
Protocol: d) Chirality changes. Replacement of the natural L-residue by the D-enantiomers dramatically increases resistance to proteolytic degradation. […] Indeed, approximately 90% of iAβ1 was degraded within minutes after intravenous injection. […] For detection, the peptide was radio-iodinated using standard procedures. Peptide stability was evaluated after i.v bolus injection in rats by precipitation with trichloroacetic acid. Quantitation of the intact peptide was also done by paper chromatography. […] In addition to the latter, D-residue are used after each proline amino acid, since it has been reported that a frequent endopeptidase cleavage site is after this residue by an enzyme known as prolylendopeptidase.

[2] = In vitro metabolism in rat liver microsomes; assay type: in vitro ADME; conditions: one hour of incubation at 37°, read-out: peptide remained intact
[3] = In vitro assay of peptide stability in fresh human plasma; assay type: in vitro ADME
Protocol: One of the major drawbacks for the use of peptides as drugs is their rapid proteolytic degradation in biological fluids and tissues. In in vitro experiments, iAβ5, (Seq LPFFD- also depicted as Leu Pro Phe Phe Asp herein) degraded very quickly in vitro after incubation with fresh human plasma. […] Since it was not possible to identify any metabolic fragments as a result of the proteolytic digestion, it seems likely that the degradation is mainly done by unspecific exopeptidases. This conclusion is supported by the finding that protection of amino- and carboxy-terminus of the peptide by acetylation and amidation, respectively, (to form Ac-iAβ5-Am—also depicted as Ac-Leu Pro Phe Phe Asp-Am herein) dramatically increases the stability of the peptide in vitro.
In vitro assays of peptide stability. Peptides were prepared as a 1 μg/μl solution in water. 20 μl of the peptide solution was diluted in 80 μl of fresh human plasma. The solution was incubated at 37° C. for different time periods and the reaction was stopped by adding a complete cocktail of protease inhibitors. The bulk of the plasma proteins (none of the peptide) were precipitated in cold methanol (mix/MeOH, 4/5, v/v) for one hour at −20° C. […] The peak area corresponding to the intact peptide was measured and compared with an equivalent sample incubated without plasma.

[4] = In vitro metabolism in human liver microsomes; assay type: in vitro ADME; conditions: one hour of incubation at 37°, read-out: peptide remained intact
[5] = system: Aβ; conditions: prior art; cited from earlier work
[6] = system: neuronal death induced by oligomeric Aβ; conditions: cell culture, prior art; cited from earlier work
[7] = target: Aβ1-42 amyloid deposits (Homo sapiens, UniProt P05067); conditions: cited from earlier work
Chain of Aβ1-42 amyloid deposits (P05067 672-713): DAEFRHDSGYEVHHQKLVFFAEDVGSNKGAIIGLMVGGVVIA

[8] = target: PrP (Homo sapiens, UniProt P04156); conditions: cited from earlier work
[9] = target: Aβ1-40 (Homo sapiens, UniProt P05067); assay: In vitro amyloid formation assay, thioflavine T fluorescence; assay type: biochemical; conditions: Aβ incubated with peptide, ThT fluorescence, FIG. 5a
Chain of Aβ1-40 (P05067 672-711): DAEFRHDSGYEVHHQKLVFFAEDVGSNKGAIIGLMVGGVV

In the case of CC[C@@H](C)[C@@H](NC(=O)[C@H]1CCCN1C(=O)[C@H](NC(=O)[C@H]1CCCN1C(=O)[C@@H](Cc1ccc(O)cc1)NC(=O)[C@@H](Cc1ccccc1)NC(=O)[C@H]1CCCN1C(=O)[C@@H](CC(C)C)NC(=O)[C@@H](CC(=O)O)NC(=O)[C@H](N)CCCNC(=N)N)C(C)C)C(=O)N[C@H](CC(=O)O)C(=O)O (H-[dR][dD][dL][dP][dF][dY][dP][dV][dP][dI][dD]-OH; N-terminus and C-terminus assumed), the “degradation in the plasma after injection” value [1] is reported as “virtually no degradation”.
In the case of CC(=O)N[C@@H](CC(C)C)C(=O)N1CCC[C@H]1C(=O)N[C@@H](Cc1ccccc1)C(=O)N[C@@H](Cc1ccccc1)C(=O)N[C@@H](CC(=O)O)C(N)=O [Ac-iAβ5-Am, Ac-Leu Pro Phe Phe Asp-Am] (Ac-LPFFD-NH2), the remaining at 1 h [2] is reported as 76.3%, the “period the peptide remained stable in human plasma” value ([3]; human plasma, FIG. 4b) is reported as “more than 24 hours” and the remaining at 1 h [4] is reported as 81.5%.
In the case of CC(C)C[C@H](N)C(=O)N1CCC[C@H]1C(=O)N[C@@H](Cc1ccccc1)C(=O)N[C@@H](Cc1ccccc1)C(=O)N[C@@H](CC(=O)O)C(=O)O [iAβ5, Leu Pro Phe Phe Asp] (H-LPFFD-OH), the “inhibition of amyloid formation and dissolution of preformed fibrils in vitro” value [5] is given as “inhibit peptide conformational changes that result in amyloid formation and also dissolved preformed fibrils”, the half-life at 0.2 μg/μl ([3]; fresh human plasma, 37° C., FIG. 4a, read-out: time in which fifty percent of the peptide disappeared in plasma) is given as roughly 5 min and the “prevention of neuronal death” value [6] is given as “capable of preventing the neuronal death”. For the same compound, the “cerebral Aβ accumulation and deposition of fibrillar amyloid-like lesions” value ([7]; co-injection with Aβ1-42, rat brain, prior art) was “decreased cerebral Aβ accumulation and completely blocked the deposition of fibrillar amyloid-like lesions”, the “inhibition of amyloid plaque formation” value ([7]; co-injection with Aβ1-42, rat) was 50% and the “dissolution of preformed deposits” value ([7]; i.c. injection in animals already containing amyloid plaques) was 67%.
For “Asp Ala Pro Ala Ala Pro Ala Gly Pro ala Val Pro Val [iPrP13]”, the “inhibitory activity on PrP conformational change among a set of β-sheet breaker peptides” value [8] is listed as “showed the greatest activity”.
For “Aβ18-21: short Aβ fragment (VFFA; Amyloid-beta protein 42; UniProt P05067 689-692, looked up, fragment)”, the “activity in inhibiting amyloid formation (fibrillogenesis)” value [9] was “no effect on fibrillogenesis or slightly increased amyloid formation”.
In the case of “GYLTVAAVFRG [CP2, unrelated control peptide]”, the “activity in inhibiting amyloid formation (fibrillogenesis)” value [9] is reported as “no effect on fibrillogenesis or slightly increased amyloid formation”.
For “ISEVKMDAEF [CP10, unrelated control peptide]”, the “activity in inhibiting amyloid formation (fibrillogenesis)” value [9] was “no effect on fibrillogenesis or slightly increased amyloid formation”.
For RDLPFYPVPID [iAβ1], the “inhibition of amyloid formation and dissolution of preformed fibrils in vitro” value [5] is given as “inhibit peptide conformational changes that result in amyloid formation and also dissolved preformed fibrils”.
With “VHVSEEGTEPA [CP1, unrelated control peptide]” the “activity in inhibiting amyloid formation (fibrillogenesis)” value [9] was “no effect on fibrillogenesis or slightly increased amyloid formation”.
